Reference: PubChem BioAssay AID248 (DTP/NCI, 2004)
Toxic doses and inconclusive results are not listed. Cut-off read from the data, not from the text of the source: active = T/C of 150% or more; inactive = T/C below 125%.

Tested on: L1210 leukemia ip in BDF1 mice, survival T/C
Assay: NCI In Vivo Anticancer Drug Screen. Data for tumor model L1210 Leukemia (intraperitoneal) in B6D2F1 (BDF1) mice
Conditions: endpoint: mean survival time, higher = longer survival
In short: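 Mice bearing the transplanted tumor received compound or vehicle. Survival of the treated group was divided by that of the vehicle-treated control group to give the ratio.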

[1] = dose: 100.0 mg/kg/injection, schedule: Q04DX002 (ip), vehicle: saline with Tween-80
[2] = dose: 200.0 mg/kg/injection, schedule: Q04DX002 (ip), vehicle: saline with Tween-80
[3] = dose: 400.0 mg/kg/injection, schedule: Q04DX002 (ip), vehicle: saline with Tween-80
[4] = dose: 12.5 mg/kg/injection, schedule: Q01DX009 (ip), vehicle: saline
[5] = dose: 25.0 mg/kg/injection, schedule: Q01DX009 (ip), vehicle: saline
[6] = dose: 50.0 mg/kg/injection, schedule: Q01DX009 (ip), vehicle: saline
[7] = dose: 100.0 mg/kg/injection, schedule: Q01DX009 (ip), vehicle: saline with Tween-80
[8] = dose: 100.0 mg/kg/injection, schedule: Q04DX003 (ip), vehicle: saline with Tween-80
[9] = dose: 200.0 mg/kg/injection, schedule: Q01DX009 (ip), vehicle: saline with Tween-80
[10] = dose: 200.0 mg/kg/injection, schedule: Q04DX003 (ip), vehicle: saline with Tween-80
[11] = dose: 400.0 mg/kg/injection, schedule: Q04DX003 (ip), vehicle: saline with Tween-80
[12] = dose: 100.0 mg/kg/injection, schedule: Q01DX001 (ip), vehicle: saline with Tween-80
[13] = dose: 200.0 mg/kg/injection, schedule: Q01DX001 (ip), vehicle: saline with Tween-80
[14] = dose: 400.0 mg/kg/injection, schedule: Q01DX001 (ip), vehicle: saline with Tween-80
[15] = dose: 100.0 mg/kg/injection, schedule: Q04DX003 (ip), vehicle: saline
[16] = dose: 200.0 mg/kg/injection, schedule: Q04DX003 (ip), vehicle: saline

Measured: T/C

c1cc[c]([Ge]([CH2][CH2][Sn]([c]2ccccc2)([c]2ccccc2)[c]2ccccc2)([CH2][CH2][Sn]([c]2ccccc2)([c]2ccccc2)[c]2ccccc2)[c]2ccccc2)cc1
inactive: [1] 98 % of control | [2] 102 % of control | [3] 94 % of control

OCC(I)C(CO)[n+]1ccccc1 (stereo unspecified)
inactive: [4] 104 % of control | dose: 12.5 mg/kg/injection, schedule: Q04DX003 (ip), vehicle: saline 102 % of control | [5] 110 % of control | dose: 25.0 mg/kg/injection, schedule: Q04DX003 (ip), vehicle: saline 100 % of control | [6] 101 % of control | dose: 50.0 mg/kg/injection, schedule: Q04DX003 (ip), vehicle: saline 102 % of control

NC(N)=NC(N)=Nc1cc(C(F)(F)F)ccc1Cl
inactive: dose: 12.5 mg/kg/injection, schedule: Q01DX009 (ip), vehicle: Klucel (hydroxypropylcellulose) (HPC) 95 % of control | dose: 25.0 mg/kg/injection, schedule: Q01DX009 (ip), vehicle: Klucel (hydroxypropylcellulose) (HPC) 95 % of control | dose: 50.0 mg/kg/injection, schedule: Q01DX009 (ip), vehicle: Klucel (hydroxypropylcellulose) (HPC) 113 % of control

CC(=O)OCC1OC(OC(C)=O)C(OC(C)=O)C(OC(C)=O)C1OC(C)=O (stereo unspecified)
inactive: dose: 100.0 mg/kg/injection, schedule: Q01DX001 (ip), vehicle: Klucel (hydroxypropylcellulose) (HPC) 101 % of control | dose: 100.0 mg/kg/injection, schedule: Q04DX003 (ip), vehicle: Klucel (hydroxypropylcellulose) (HPC) 97 % of control | dose: 200.0 mg/kg/injection, schedule: Q01DX001 (ip), vehicle: Klucel (hydroxypropylcellulose) (HPC) 94 % of control | dose: 200.0 mg/kg/injection, schedule: Q04DX003 (ip), vehicle: Klucel (hydroxypropylcellulose) (HPC) 93 % of control | dose: 400.0 mg/kg/injection, schedule: Q01DX001 (ip), vehicle: Klucel (hydroxypropylcellulose) (HPC) 105 % of control | dose: 400.0 mg/kg/injection, schedule: Q04DX003 (ip), vehicle: Klucel (hydroxypropylcellulose) (HPC) 102 % of control

N#CSCSC#N
inactive: dose: 3.12 mg/kg/injection, schedule: Q04DX003 (ip), vehicle: saline with Tween-80 98 % of control | dose: 6.25 mg/kg/injection, schedule: Q04DX003 (ip), vehicle: saline with Tween-80 96 % of control | dose: 12.5 mg/kg/injection, schedule: Q04DX003 (ip), vehicle: saline with Tween-80 90 % of control

Nc1cc(C(=O)O)[nH]c(=O)n1
inactive: dose: 100.0 mg/kg/injection, schedule: Q01DX Z (ip), vehicle: methylcellulose (MC) 97 % of control

COC(=O)C1C=CCC(C(=O)OC)C1 (stereo unspecified)
inactive: [7] 91 % of control | [8] 109 % of control | [9] 96 % of control | [10] 96 % of control | dose: 400.0 mg/kg/injection, schedule: Q01DX009 (ip), vehicle: saline with Tween-80 100 % of control | [11] 93 % of control

COc1ccc(S(=O)(=O)F)cc1C(=O)O
inactive: [12] 100 % of control | [7] 100 % of control | [1] 90 % of control | [8] 94 % of control | [13] 92 % of control | [9] 100 % of control | [2] 113 % of control | [10] 97 % of control | [14] 94 % of control | [3] 86 % of control | [11] 88 % of control

c1ccc2c(c1)Cc1cc3ccccc3cc1-2
inactive: dose: 50.0 mg/kg/injection, schedule: Q01DX001 (ip), vehicle: gum acacia 94 % of control | dose: 100.0 mg/kg/injection, schedule: Q01DX001 (ip), vehicle: gum acacia 95 % of control | dose: 200.0 mg/kg/injection, schedule: Q01DX001 (ip), vehicle: gum acacia 94 % of control

O=c1ccn(Cc2cccc(Oc3ccccc3)c2)c(=O)[nH]1
inactive: [12] 92 % of control | [13] 93 % of control | [14] 92 % of control

OC(c1cc2ccc(C(F)(F)F)cc2c2cc(C(F)(F)F)ccc12)C1CCCCN1 (stereo unspecified)
inactive: [4] 93 % of control | [5] 103 % of control | [6] 108 % of control

Cc1n(-c2ccccc2)c2c([n+]1Cc1ccc([N+](=O)[O-])cc1)C(=O)c1ccccc1C2=O
inactive: dose: 5.0 mg/kg/injection, schedule: Q01DX001 (ip), vehicle: other 106 % of control | dose: 10.0 mg/kg/injection, schedule: Q01DX001 (ip), vehicle: other 101 % of control | dose: 20.0 mg/kg/injection, schedule: Q01DX001 (ip), vehicle: other 93 % of control | dose: 40.0 mg/kg/injection, schedule: Q01DX001 (ip), vehicle: other 95 % of control

NC(=O)N/N=C1/C=C2CCCCC2CC1 (stereo unspecified)
inactive: dose: 75.0 mg/kg/injection, schedule: Q01DX001 (ip), vehicle: other 101 % of control | dose: 150.0 mg/kg/injection, schedule: Q01DX001 (ip), vehicle: other 95 % of control | dose: 300.0 mg/kg/injection, schedule: Q01DX001 (ip), vehicle: other 100 % of control

COC1=C(N)C(=O)c2ncccc2C1=O
inactive: dose: 4.0 mg/kg/injection, schedule: Q01DX009 (ip), vehicle: acetone 105 % of control | dose: 8.0 mg/kg/injection, schedule: Q01DX009 (ip), vehicle: acetone 105 % of control | dose: 16.0 mg/kg/injection, schedule: Q01DX009 (ip), vehicle: acetone 102 % of control

O=C(O)CC1CCCNC1 (stereo unspecified)
inactive: dose: 75.0 mg/kg/injection, schedule: Q04DX003 (ip), vehicle: saline 100 % of control | dose: 150.0 mg/kg/injection, schedule: Q04DX003 (ip), vehicle: saline 103 % of control | dose: 300.0 mg/kg/injection, schedule: Q04DX003 (ip), vehicle: saline 101 % of control

CSc1ccc(NC(=O)Oc2cc(C)c(Cl)cc2C(C)C)cc1
inactive: dose: 100.0 mg/kg/injection, schedule: Q01DX009 (ip), vehicle: Klucel (hydroxypropylcellulose) (HPC) 94 % of control | dose: 200.0 mg/kg/injection, schedule: Q01DX009 (ip), vehicle: Klucel (hydroxypropylcellulose) (HPC) 96 % of control | dose: 400.0 mg/kg/injection, schedule: Q01DX009 (ip), vehicle: Klucel (hydroxypropylcellulose) (HPC) 89 % of control

CC(C)(C)CC(C)(C)c1ccc(OCCO)cc1
inactive: [6] 97 % of control | dose: 100.0 mg/kg/injection, schedule: Q01DX009 (ip), vehicle: saline 91 % of control | [15] 107 % of control | [16] 101 % of control

COc1ccc(/C=C2\CN(CCC(=O)O)C(=O)C2=O)cc1
inactive: dose: 100.0 mg/kg/injection, schedule: Q01DX001 (ip), vehicle: saline 103 % of control | [15] 98 % of control | dose: 200.0 mg/kg/injection, schedule: Q01DX001 (ip), vehicle: saline 98 % of control | [16] 98 % of control | dose: 400.0 mg/kg/injection, schedule: Q01DX001 (ip), vehicle: saline 98 % of control | dose: 400.0 mg/kg/injection, schedule: Q04DX003 (ip), vehicle: saline 98 % of control

NC1=C(Cl)C(=O)c2ccccc2C1=O
inactive: dose: 25.0 mg/kg/injection, schedule: Q04DX003 (ip), vehicle: saline with Tween-80 100 % of control | dose: 50.0 mg/kg/injection, schedule: Q04DX003 (ip), vehicle: saline with Tween-80 101 % of control | [8] 90 % of control

CC(CCl)(CCl)CCl
inactive: dose: 50.0 mg/kg/injection, schedule: Q01DX009 (ip), vehicle: saline sonified 96 % of control | dose: 100.0 mg/kg/injection, schedule: Q01DX001 (ip), vehicle: saline sonified 99 % of control | dose: 100.0 mg/kg/injection, schedule: Q01DX009 (ip), vehicle: saline sonified 106 % of control | dose: 200.0 mg/kg/injection, schedule: Q01DX001 (ip), vehicle: saline sonified 96 % of control | dose: 200.0 mg/kg/injection, schedule: Q01DX009 (ip), vehicle: saline sonified 94 % of control

Nc1nc(N)c2nc(CNc3ccc(C(=O)NCC(=O)O)cc3)cnc2n1
inactive: dose: 5.0 mg/kg/injection, schedule: Q01DX009 (ip), vehicle: Klucel (hydroxypropylcellulose) (HPC) 93 % of control | dose: 10.0 mg/kg/injection, schedule: Q01DX009 (ip), vehicle: Klucel (hydroxypropylcellulose) (HPC) 101 % of control | dose: 20.0 mg/kg/injection, schedule: Q01DX009 (ip), vehicle: Klucel (hydroxypropylcellulose) (HPC) 109 % of control | dose: 40.0 mg/kg/injection, schedule: Q01DX009 (ip), vehicle: Klucel (hydroxypropylcellulose) (HPC) 105 % of control
